Assay [1] concerns homogénats de cerveaux de rats. As to the kind of experiment: Induced lipid peroxidation (Fe2+ - ascorbate) in rat brain homogenates (MDA). The following applies: ratio versus probucol, induced peroxidation (Fe²⁺ - ascorbate). It is filed as biochemical. The protocol:
L'action des composés utilisés selon l'invention, susceptibles de piéger les radicaux ·OH, a été étudiée d'une part, sur la peroxydation spontanée des lipides et d'autre part, sur la peroxydation induite par le système Fe²⁺ - ascorbate (10 µM - 250 µM), et ce, sur des homogénats de cerveaux de rats.
Lors de la mesure de la peroxydation lipidique spontanée, les homogénats de cerveau de rats sont placés en présence ou en absence des composés à tester durant 60 minutes à 37°C. La réaction est arrêtée à 0°C et le dosage du malondialdéhyde est effectué à l'aide d'acide thiobarbiturique. La peroxydation lipidique est déterminée par les substances réagissant avec l'acide thiobarbiturique exprimées en nanomoles de malondialdéhyde (MDA). Les concentrations des composés testés inhibant de 50 % la peroxydation du substrat sont calculées. Il est apparu que les composés de formule (I) utilisés selon l'invention possèdent une activité antiperoxydante particulièrement intense puisqu'ils possèdent une activité antiperoxydante nettement plus importante que le probucol et la vitamine E, qui est l'antioxydant naturel de l'organisme humain.
Lors de la mesure de la peroxydation lipidique induite, la méthodologie est identique à celle précédemment décrite à l'exception de l'addition à l'homogénat du système inducteur de radicaux : Fe²⁺ - ascorbate. […]

The subject of another assay is granulocytes de lapins. As to the kind of experiment: Anti-inflammatory activity: leukotriene B4 release from A 23187-stimulated granulocytes (RIA). It is filed as cell-based. As to conditions: stimulation by calcium ionophore A 23187, mean of 3 independent measurements, versus control, read-out: pouvoir inhibiteur (leucotriènes B₄ libérés). An excerpt:
Les mesures sont réalisées sur granulocytes de lapins. Les granulocytes isolés sont stimulés in vitro par l'ionophore calcique (A 23187). Les leucotriènes B₄ libérés dans le milieu extracellulaire sont mesurés par Radio Immuno Assay (RIA). Les résultats (moyennes de 3 mesures indépendantes) sont exprimés en pourcentage d'inhibition par rapport au témoin.

For assay [2], the system named is agrégation plaquettaire (plasma de lapin enrichi en plaquettes). As to the kind of experiment: Anti-aggregant activity: platelet aggregation induced by sodium arachidonate. It is filed as cell-based. As to conditions: aggregation induced by arachidonate de sodium (50 µg/ml); rabbit platelet-rich plasma; read-out: concentration minimale active. The protocol: Dans cette étude, les composés de l'invention (100 µg/ml) ont été testés dans le but de quantifier leur pouvoir d'inhibition du maximum non-réversible d'agrégation plaquettaire (plasma de lapin enrichi en plaquettes) induite par l'arachidonate de sodium (50 µg/ml). Ainsi, la concentration minimale active pour le composé de l'exemple 17 est de 30 µM.

The subject of a further assay is LDL natives. As to the kind of experiment: Protection against LDL oxidation (Cu2+ system, 24 h incubation, FPLC analysis). The following applies: 10⁻⁵ M, 24 h incubation with native LDL and Cu²⁺ system, compared with probucol. The assay is classed as biochemical. The procedure:
La capacité des composés de l'invention à diminuer les proportions de LDL oxydées a été mesurée de la façon suivante : on réalise une incubation de 24 heures regroupant des LDL natives, un système Cu²⁺ générateur de radicaux libres et les composés à tester. Les résultats sont obtenus après analyse du milieu par une technique chromatographique haute performance : la FPLC (Fast Protein Liquid Chromatography). Le pouvoir protecteur du composé testé est déterminé après comparaison du chromatogramme obtenu avec celui du témoin positif de référence : le probucol. Il apparaît clairement que les composés de l'invention ont un pouvoir protecteur très important. A titre de comparaison, pour une concentration de 10⁻⁵ M, le niveau de protection obtenu pour les composés de l'invention dépasse celui du probucol.

The source of these data is patent EP0624575A1, “Substituted indoles and pharmaceutical compositions containing them” (ADIR ET COMPAGNIE, priority 1993, dated 1994).

`CCCCN(C(=O)c1cc2cc(O)ccc2n1C)c1ccccc1` [exemple 17, N-(n-Butyl)-N-phényl-(5-hydroxy-1-méthylindol-2-yl)carboxamide]: the Ratio probucol in assay [1] is reported as 6. For the same compound, the inhibition at 10 µM in the assay on granulocytes de lapins amounted to 51%. Further, the minimal effective concentration in assay [2] amounted to 30 µM. In addition, the “pouvoir protecteur vis-à-vis d'un système oxydant des LDL” value in the assay with LDL natives was “pratiquement total”.
